Reference: patent publication US8163700B2, “Inhibitors of myelin-associated glycoprotein (MAG) activity for regulating neural growth and regeneration” (Research Foundation of City University of New York, priority 2002, dated 2012)
Residue numbers refer to the chain shown, from its start. Names and notes keep the numbering of the source. “Also recorded” adds a separate entry of the source.

B1: MAG(L346D)-Fc: murine MAG-Fc with point mutation L346D, Ig domain 4 (protein, UniProt P20917 20-516, looked up, variant L346D)
extracellular domain: GHWGAWMPSTISAFEGTCVSIPCRFDFPDELRPAVVHGVWYFNSPYPKNYPPVVFKSRTQVVHESFQGRSRLLGDLGLRNCTLLLSTLSPELGGKYYFRGDLGGYNQYTFSEHSVLDIVNTPNIVVPPEVVAGTEVEVSCMVPDNCPELRPELSWLGHEGLGEPTVLGRLREDEGTWVQVSLLHFVPTREANGHRLGCQAAFPNTTLQFEGYASLDVKYPPVIVEMNSSVEAIEGSHVSLLCGADSNPPPLLTWMRDGMVLREAVAKSLYLDLEEVTPGEDGVYACLAENAYGQDNRTVELSVMYAPWKPTVNGTVVAVEGETVSIDCSTQSNPDPILTIFKEKQILATVIYESQLQLELPAVTPEDDGEYWCVAENQYGQRATAFNLSVEFAPIILLESHCAAARDTVQCLCVVKSNPEPSVAFELPSRNVTVNETEREFVYSERSGLLLTSILTIRGQAQAPPRVICTSRNLYGTQSLELPFQGAHRLMWAKIGP
modifications: extracellular domain Fc fusion
B2: MAG(E410K)-Fc: murine MAG-Fc with point mutation E410K, Ig domain 4/5 (protein, UniProt P20917 20-516, looked up, variant E410K)
extracellular domain: B1 extracellular domain with D327L, E391K
modifications: extracellular domain Fc fusion
B3: MAG(L431D)-Fc: murine MAG-Fc with point mutation L431D, Ig domain 5 (protein, listed as Mus sp.)
chain: MIFLATLPLFWIMISASRGGHWGAWMPSTISAFEGTCVSIPCRFDFPDELRPAVVHGVWYFNSPYPKNYPPVVFKSRTQVVHESFQGRSRLLGDLGLRNCTLLLSTLSPELGGKYYFRGDLGGYNQYTFSEHSVLDIVNTPNIVVPPEVVAGTEVEVSCMVPDNCPELRPELSWLGHEGLGEPTVLGRLREDEGTWVQVSLLHFVPTREANGHRLGCQAAFPNTTLQFEGYASLDVKYPPVIVEMNSSVEAIEGSHVSLLCGADSNPPPLLTWMRDGMVLREAVAKSLYLDLEEVTPGEDGVYACLAENAYGQDNRTVELSVMYAPWKPTVNGTVVAVEGETVSILCSTQSNPDPILTIFKEKQILATVIYESQLQLELPAVTPEDDGEYWCVAENQYGQRATAFNLSVEFAPIILLESHCAAARDTVQCDCVVKSNPEPSVAFELPSRNVTVNETEREFVYSERSGLLLTSILTIRGQAQAPPRVICTSRNLYGTQSLELPFQGAHRLMWAKIGPVGAVVAFAILIAIVCYITQTRRKKNVTESSSFSGGDNPHVLYSPEFRISGAPDKYESREVSTRDCH
modifications: Fc fusion

system: wild-type MAG-expressing cells; test: Neurite outgrowth on MAG-expressing cells in the presence of MAG, Nogo and OMgp peptides (Example 6); format: cell-based; conditions: tested as described in Example 5; example written in present tense
From the text: Peptides corresponding to amino acid residues […] of MAG (MAG(343-371)), amino acid residues 363-397 (MAG(363-397)), amino acid residues 394-428 (MAG(394-428)), amino acid residues 422-451 (MAG(422-451)), amino acid residues 442-471 (MAG(442-471)), and amino acid residues 461-498 (MAG(461-498)) were synthesized. Peptides were obtained from SynPep Corp. (Dublin, Calif.). MAG(343-371), MAG(363-397) and MAG(394-428) correspond to amino acid residues from the Ig4 domain of MAG. MAG(422-451), MAG(442-471) and MAG(461-498) corresponds to amino acid residues from the Ig5 domain of MAG. […] Results are shown in FIG. 4 (and are represented as number of neurons with processes longer than 2-times the cell diameter). […] Results are shown in FIG. 5 (and are represented as average neurite length for 180-200 neurons).
Peptides corresponding to MAG amino acid residues 437-441 (M437), 446-455 (M446), 450-455 (M450), 466-471 (M466); and 472-477 (M472) are constructed and tested in neurite outgrowth assays as described in Example 5. (See peptides in FIG. 18).
Peptides corresponding to Nogo-66 amino acid residues 13-17 (N13), 22-31(N22-1), 22-34 (N22-2), 26-31 (N26-1); 26-34 (N26-2); 9-33 (N-9-1); 9-34 (N-9-2); 38-62 (N38); 42-47 (N42); and 48-53 (N48) are also constructed and tested in neurite outgrowth assays as described in Example 5.
Peptides corresponding to OMgp amino acid residues 206-210 (O206), 215-224 (O215), 219-224 (O219), 202-226 (O202); 231-255 (O231), 235-240 (O235) 241-246 (O241) are constructed and tested in neurite outgrowth assays as described in Example 5.

Row | Molecule | effect on the ability of wild-type MAG-expressing cells to inhibit neurite outgrowth
1 | M437: peptide of MAG amino acid residues 437-441 (SEQ ID NO: 17) (NPEPS) | reduce the ability of the wild-type MAG-expressing cells to inhibit neurite outgrowth
2 | M446: peptide of MAG amino acid residues 446-455 (SEQ ID NO: 18) (LPSRNVTVNE) | reduce the ability of the wild-type MAG-expressing cells to inhibit neurite outgrowth
3 | M450: peptide of MAG amino acid residues 450-455 (SEQ ID NO: 19) (NVTVNE) | reduce the ability of the wild-type MAG-expressing cells to inhibit neurite outgrowth
4 | M466: peptide of MAG amino acid residues 466-471 (SEQ ID NO: 21) (SGLLLT) | reduce the ability of the wild-type MAG-expressing cells to inhibit neurite outgrowth
5 | M472: peptide of MAG amino acid residues 472-477 (SEQ ID NO: 22) (SILTLR) | reduce the ability of the wild-type MAG-expressing cells to inhibit neurite outgrowth
6 | N38: peptide of Nogo-66 amino acid residues 38-62 (SEQ ID NO: 32) (SNSALGHVNSTIKELRRLFLVDDLV) | reduce the ability of wild-type MAG-expressing cells to inhibit neurite outgrowth; also recorded: reduce the ability of the wild-type MAG-expressing cells to inhibit neurite outgrowth
7 | N42: peptide of Nogo-66 amino acid residues 42-47 (EEDEDE; Nogo-66; UniProt Q9NQC3 42-47, looked up, fragment) | reduce the ability of wild-type MAG-expressing cells to inhibit neurite outgrowth; also recorded: reduce the ability of the wild-type MAG-expressing cells to inhibit neurite outgrowth
8 | N48: peptide of Nogo-66 amino acid residues 48-53 (DLEELE; Nogo-66; UniProt Q9NQC3 48-53, looked up, fragment) | reduce the ability of wild-type MAG-expressing cells to inhibit neurite outgrowth; also recorded: reduce the ability of the wild-type MAG-expressing cells to inhibit neurite outgrowth
9 | N-9-1: peptide of Nogo-66 amino acid residues 9-33 (LVSSSDSPPRPQPAFKYQFVREPED; Nogo-66; UniProt Q9NQC3 9-33, looked up, fragment) | reduce the ability of wild-type MAG-expressing cells to inhibit neurite outgrowth; also recorded: reduce the ability of the wild-type MAG-expressing cells to inhibit neurite outgrowth
10 | N-9-2: peptide of Nogo-66 amino acid residues 9-34 (LVSSSDSPPRPQPAFKYQFVREPEDE; Nogo-66; UniProt Q9NQC3 9-34, looked up, fragment) | reduce the ability of wild-type MAG-expressing cells to inhibit neurite outgrowth; also recorded: reduce the ability of the wild-type MAG-expressing cells to inhibit neurite outgrowth
11 | O202: peptide of OMgp amino acid residues 202-226 (SEQ ID NO: 38) (KFTFIPEQSFDQLLQLQEITLHNNR) | reduce the ability of the wild-type MAG-expressing cells to inhibit neurite outgrowth
12 | O206: peptide of OMgp amino acid residues 206-210 (SEQ ID NO: 35) (IPEQS) | reduce the ability of the wild-type MAG-expressing cells to inhibit neurite outgrowth
13 | O215: peptide of OMgp amino acid residues 215-224 (SEQ ID NO: 36) (LQLQEITLHN) | reduce the ability of the wild-type MAG-expressing cells to inhibit neurite outgrowth
14 | O219: peptide of OMgp amino acid residues 219-224 (SEQ ID NO: 37) (EITLHN) | reduce the ability of the wild-type MAG-expressing cells to inhibit neurite outgrowth
15 | O231: peptide of OMgp amino acid residues 231-255 (SEQ ID NO: 39) (HKQNITYLLKWVMETKAHVIGTPCS) | reduce the ability of the wild-type MAG-expressing cells to inhibit neurite outgrowth
16 | O235: peptide of OMgp amino acid residues 235-240 (SEQ ID NO: 40) (ITYLLK) | reduce the ability of the wild-type MAG-expressing cells to inhibit neurite outgrowth
17 | O241: peptide of OMgp amino acid residues 241-246 (SEQ ID NO: 41) (WVMETK) | reduce the ability of the wild-type MAG-expressing cells to inhibit neurite outgrowth

system: cerebellar neurons; test: Neurite outgrowth on L1-Fc substrate in the presence of soluble MAG-Fc chimeras (FIG. 3); format: cell-based; conditions: soluble protein 25 μg/ml, 18 hours, compared to control chimera
Description: FIG. 3 Inhibition of neurite outgrowth from cerebellar neurons by MAG-Fc Derivatives Cerebellar neurons were isolated (Example 1) and plated onto a growth promoting substrate of L1 protein (Example 4). A control MUC-Fc fusion (clear bar), wild-type MAG-Fc (striped bar) and MAG-Fc derivatives having point mutations in MAG Ig-like domains 4 or 5 (grey bars) were constructed (Example 4) and added in soluble form to neurons (25 μg/ml). After 18 hours, cultures were fixed and stained for GAP-43 antigen. Neurite length was measured and the average length was calculated for 180-200 neurons (+/−SEM).
Individual wells of an eight-chamber tissue culture plastic slide (Lab-Tek, Nuc. Inc.) were incubated with 0.3 nil of 16.6 μg/ml poly-1-lysine in sterile water for at least one hour under sterile conditions. Each well was washed twice with 400 μl of a 0.1M sodium bicarbonate solution, pH 9.6, and then received 0.3 ml of 0.1M sodium bicarbonate solution, pH 9.6, containing 15 μg/ml goat anti-human IgG (Fc-specific) monoclonal antibody (Sigma). The wells were incubated for 2 hours (h) at 37° C., and washed three times with 0.4 ml of ice-cold DMEM. Each well then received 0.3 nil of DMEM containing 40 μg/ml of L1-Fc and was incubated for 2-4 h at 37° C. The welts were washed twice DMEM.
Cerebellar neurons (post-natal days 2-7) were dissociated by trypsinization as described in Example 1, except that the dissociated neurons were resuspended in 5 ml of SATO medium containing 2% dialyzed FBS. To an individual well coated with a monolayer of L1-Fc as described above, 5.0×10^4 cerebellar neurons were added, followed by addition of one of the mutant MAG-Fc or MUC18-Fc chimeric soluble protein described above at a concentration of 25 μg/ml. Neurons were cultured for 18 hours at 37° C., and then fixed and stained for GAP43 essentially as described in Example 2. Neurite length was measured for 180-200 neurons.

Row | Molecule | inhibition of neurite outgrowth (in words)
18 | B1 | inhibited neurite outgrowth as effectively as MAG-Fc
19 | B2 | inhibited neurite outgrowth as effectively as MAG-Fc
20 | B3 | none
